Values quoted from earlier work, collected in patent publication US6262108A, “Medicinal use of cromoglycic acid compounds” (Kyoto Pharmaceutical Industries, Ltd., priority 1997, dated 2001).
Counter-ions that a name gives are not always drawn.

Legend:
[1] = test system: contact dermatitis and atopic dermatitis; details: background statement on conventional antiallergic agents; cited from earlier work
[2] = test system: type IV allergic reaction; details: background statement, postulated, with literature references; cited from earlier work

Row | SMILES | therapeutic effects on contact dermatitis and atopic dermatitis [1] | type IV allergic reaction-inhibitory action [2]
1 | CCOCCn1c(N2CCCN(C)CC2)nc2ccccc21 [emedastine difumarate] | either ineffective or fail to show satisfactory therapeutic effects | failure to show a type IV allergic reaction-inhibitory action
2 | NC1=NCC2c3ccccc3Cc3ccccc3N12 (stereo not drawn) [epinastine hydrochloride] | either ineffective or fail to show satisfactory therapeutic effects | failure to show a type IV allergic reaction-inhibitory action
3 | O=c1[nH]c2ccccc2n1CCCN1CCN(C(c2ccccc2)c2ccccc2)CC1 [oxatomide] | either ineffective or fail to show satisfactory therapeutic effects | failure to show a type IV allergic reaction-inhibitory action
4 | Cc1cccn2c(=O)c(-c3nnn[nH]3)cnc12 [pemirolast potassium] | either ineffective or fail to show satisfactory therapeutic effects | failure to show a type IV allergic reaction-inhibitory action
5 | Cc1ccc2c([nH]c(=O)c3c(=O)cc(C(=O)OCCC(C)C)oc32)c1C [repirinast] | either ineffective or fail to show satisfactory therapeutic effects | failure to show a type IV allergic reaction-inhibitory action
6 | COc1ccc(/C=C/C(=O)Nc2ccccc2C(=O)O)cc1OC [tranilast] | either ineffective or fail to show satisfactory therapeutic effects | failure to show a type IV allergic reaction-inhibitory action
